Measured values published in patent publication US12268667B2, “JAK1 pathway inhibitors for the treatment of prurigo nodularis” (Incyte Corporation, priority 2021, dated 2025).

What was measured:
[1] = target: human JAK1 (a.a. 837-1142) (Homo sapiens, UniProt P23458); assay: In vitro JAK kinase assay (HTRF), JAK1; type: biochemical; settings: 1 mM ATP
Procedure: (§1) The catalytic activity of JAK1, JAK2 or JAK3 are assayed by measuring the phosphorylation of a biotinylated peptide. The phosphorylated peptide was detected by homogenous time resolved fluorescence (HTRF). […] Reactions are carried out at room temperature for 1 hour and then stopped with 20 μL 45 mM EDTA, 300 nM SA-APC, 6 nM Eu-Py20 in assay buffer (Perkin Elmer, Boston, MA). Binding to the Europium labeled antibody takes place for 40 minutes and HTRF signal was measured on a Fusion plate reader (Perkin Elmer, Boston, MA).

[2] = target: human JAK2 (a.a. 828-1132) (Homo sapiens (Human), UniProt O60674); assay: In vitro JAK kinase assay (HTRF), JAK2; type: biochemical; settings: JAK2/JAK1 IC50 ratio at 1 mM ATP
Sequence of human JAK2 (a.a. 828-1132) (O60674 828-1132): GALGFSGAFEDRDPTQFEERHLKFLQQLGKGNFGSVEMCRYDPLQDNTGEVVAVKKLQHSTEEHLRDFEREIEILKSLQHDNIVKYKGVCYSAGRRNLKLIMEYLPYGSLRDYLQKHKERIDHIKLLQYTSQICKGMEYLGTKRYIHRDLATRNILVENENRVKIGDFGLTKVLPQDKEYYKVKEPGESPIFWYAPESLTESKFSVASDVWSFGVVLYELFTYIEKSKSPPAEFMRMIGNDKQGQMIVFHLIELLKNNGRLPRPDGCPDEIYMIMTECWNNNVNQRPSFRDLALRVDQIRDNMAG
Procedure: as §1

SMILES | IC50 [1] [nM] | JAK2/JAK1 [2]
N#CCC(C1CCN(c2cccc(Cl)n2)C1)n1cc(-c2ncnc3[nH]ccc23)cn1 (single isomer, unassigned) [Compound 6, 3-[1-(6-chloropyridin-2-yl)pyrrolidin-3-yl]-3-[4-(7H-pyrrolo[2,3-d]pyrimidin-4-yl)-1H-pyrazol-1-yl]propanenitrile] | < 10 | >10
C[C@@H](O)c1nc2cnc3ccsc3c2n1[C@H]1CC[C@H](CC#N)OC1 [Compound 5, ((2R,5S)-5-{2-[(1R)-1-hydroxyethyl]-1H-imidazo[4,5-d]thieno[3,2-b]pyridin-1-yl}tetrahydro-2H-pyran-2-yl)acetonitrile] | < 100 | >10
N#CCC(C1CCN(c2nc3cccnc3o2)C1)n1cc(-c2ncnc3[nH]ccc23)cn1 (centres unmarked) [Compound 7, 3-(1-[1,3]oxazolo[5,4-b]pyridin-2-ylpyrrolidin-3-yl)-3-[4-(7H-pyrrolo[2,3-d]pyrimidin-4-yl)-1H-pyrazol-1-yl]propanenitrile] | < 10 | >10
N#CCC(CN1CCN(C(=O)c2ccc(C#N)cc2F)CC1)n1cc(-c2ncnc3[nH]ccc23)cn1 (centres unmarked) [Compound 8, 4-[(4-{3-cyano-2-[4-(7H-pyrrolo[2,3-d]pyrimidin-4-yl)-1H-pyrazol-1-yl]propyl}piperazin-1-yl)carbonyl]-3-fluorobenzonitrile] | < 10 | >10
N#CCC(CN1CCN(C(=O)c2ccc(C#N)cc2F)CC1)n1ccc(-c2ncnc3[nH]ccc23)c1 (centres unmarked) [Compound 9, 4-[(4-{3-cyano-2-[3-(7H-pyrrolo[2,3-d]pyrimidin-4-yl)-1H-pyrrol-1-yl]propyl}piperazin-1-yl)carbonyl]-3-fluorobenzonitrile] | < 10 | >10
N#CC[C@]1(n2cc(-c3ncnc4[nH]ccc34)cn2)C[C@H](N2CCC(Oc3cc(CN4CC(O)C4)cc(C(F)(F)F)n3)CC2)C1 [Compound 11, {trans-3-(4-{[4-[(3-hydroxyazetidin-1-yl)methyl]-6-(trifluoromethyl)pyridin-2-yl]oxy}piperidin-1-yl)-1-[4-(7H-pyrrolo[2,3-d]pyrimidin-4-yl)-1H-pyrazol-1-yl]cyclobutyl}acetonitrile] | < 10 | >10
N#CC[C@]1(n2cc(-c3ncnc4[nH]ccc34)cn2)C[C@H](N2CCC(Oc3cc(CN4CCC[C@H]4CO)cc(C(F)(F)F)n3)CC2)C1 [Compound 12, {trans-3-(4-{[4-{[(2S)-2-(hydroxymethyl)pyrrolidin-1-yl]methyl}-6-(trifluoromethyl)pyridin-2-yl]oxy}piperidin-1-yl)-1-[4-(7H-pyrrolo[2,3-d]pyrimidin-4-yl)-1H-pyrazol-1-yl]cyclobutyl}acetonitrile] | < 10 | >10
N#CC[C@]1(n2cc(-c3ncnc4[nH]ccc34)cn2)C[C@H](N2CCC(Oc3cc(CN4CCC[C@@H]4CO)cc(C(F)(F)F)n3)CC2)C1 [Compound 13, {trans-3-(4-{[4-{[(2R)-2-(hydroxymethyl)pyrrolidin-1-yl]methyl}-6-(trifluoromethyl)pyridin-2-yl]oxy}piperidin-1-yl)-1-[4-(7H-pyrrolo[2,3-d]pyrimidin-4-yl)-1H-pyrazol-1-yl]cyclobutyl}acetonitrile] | < 10 | >10
C[C@H](NC(=O)c1cc(F)c(N2CC(CC#N)(n3cc(-c4ncnc5[nH]ccc45)cn3)C2)cc1F)C(F)(F)F [Compound 16, 4-{3-(cyanomethyl)-3-[4-(7H-pyrrolo[2,3-d]pyrimidin-4-yl)-1H-pyrazol-1-yl]azetidin-1-yl}-2,5-difluoro-N-[(1S)-2,2,2-trifluoro-1-methylethyl]benzamide] | < 10 | >10
N#CCC1(n2cc(-c3ncnc4[nH]ccc34)cn2)CN([C@H]2CC[C@@H](Oc3cc(CCO)nc(C(F)(F)F)n3)CC2)C1 [Compound 18, {1-(cis-4-{[6-(2-hydroxyethyl)-2-(trifluoromethyl)pyrimidin-4-yl]oxy}cyclohexyl)-3-[4-(7H-pyrrolo[2,3-d]pyrimidin-4-yl)-1H-pyrazol-1-yl]azetidin-3-yl}acetonitrile] | < 10 | >10
C[C@@H](CO)NCc1cc(OC2CCN([C@H]3C[C@](CC#N)(n4cc(-c5ncnc6[nH]ccc56)cn4)C3)CC2)nc(C(F)(F)F)c1 [Compound 23, {trans-3-(4-{[4-({[(1S)-2-hydroxy-1-methylethyl]amino}methyl)-6-(trifluoromethyl)pyridin-2-yl]oxy}piperidin-1-yl)-1-[4-(7H-pyrrolo[2,3-d]pyrimidin-4-yl)-1H-pyrazol-1-yl]cyclobutyl}acetonitrile] | < 10 | >10
C[C@@H](O)CNCc1cc(OC2CCN([C@H]3C[C@](CC#N)(n4cc(-c5ncnc6[nH]ccc56)cn4)C3)CC2)nc(C(F)(F)F)c1 [Compound 24, {trans-3-(4-{[4-({[(2R)-2-hydroxypropyl]amino}methyl)-6-(trifluoromethyl)pyridin-2-yl]oxy}piperidin-1-yl)-1-[4-(7H-pyrrolo[2,3-d]pyrimidin-4-yl)-1H-pyrazol-1-yl]cyclobutyl}acetonitrile] | < 10 | >10
C[C@H](O)CNCc1cc(OC2CCN([C@H]3C[C@](CC#N)(n4cc(-c5ncnc6[nH]ccc56)cn4)C3)CC2)nc(C(F)(F)F)c1 [Compound 25, {trans-3-(4-{[4-({[(2S)-2-hydroxypropyl]amino}methyl)-6-(trifluoromethyl)pyridin-2-yl]oxy}piperidin-1-yl)-1-[4-(7H-pyrrolo[2,3-d]pyrimidin-4-yl)-1H-pyrazol-1-yl]cyclobutyl}acetonitrile] | < 10 | >10
N#CC[C@]1(n2cc(-c3ncnc4[nH]ccc34)cn2)C[C@H](N2CCC(Oc3cc(CCO)cc(C(F)(F)F)n3)CC2)C1 [Compound 26, {trans-3-(4-{[4-(2-hydroxyethyl)-6-(trifluoromethyl)pyridin-2-yl]oxy}piperidin-1-yl)-1-[4-(7H-pyrrolo[2,3-d]pyrimidin-4-yl)-1H-pyrazol-1-yl]cyclobutyl}acetonitrile] | < 10 | >10

Second part, the compound after the results:

IC50 [1] [nM] | JAK2/JAK1 [2] | SMILES
< 10 | >10 | N#CCC1(n2cc(-c3ncnc4[nH]ccc34)cn2)CN(C2CCN(C(=O)Nc3ccc(F)cc3C(F)(F)F)CC2)C1 [Compound 2, 4-{3-(Cyanomethyl)-3-[4-(7H-pyrrolo[2,3-d]pyrimidin-4-yl)-1H-pyrazol-1-yl]azetidin-1-yl}-N-[4-fluoro-2-(trifluoromethyl)phenyl] piperidine-1-carboxamide]
< 10 | >10 | N#CCC1(n2cc(-c3ncnc4[nH]ccc34)cn2)CN(C2CCN(C(=O)c3ccnc(C(F)(F)F)n3)CC2)C1 [Compound 3, [3-[4-(7H-pyrrolo[2,3-d]pyrimidin-4-yl)-1H-pyrazol-1-yl]-1-(1-{[2-(trifluoromethyl)pyrimidin-4-yl]carbonyl}piperidin-4-yl)azetidin-3-yl]acetonitrile]
< 10 | >10 | N#CCC1(n2cc(-c3ncnc4[nH]ccc34)cn2)CN(C2CCN(C(=O)c3ccnc(C(F)(F)F)c3F)CC2)C1 [Compound 4, {1-{1-[3-Fluoro-2-(trifluoromethyl)isonicotinoyl]piperidin-4-yl}-3-[4-(7H-pyrrolo[2,3-d]pyrimidin-4-yl)-1H-pyrazol-1-yl]azetidin-3-yl}acetonitrile]
< 10 | >10 | N#CC[C@]1(n2cc(-c3ncnc4[nH]ccc34)cn2)C[C@H](N2CCN(C(=O)c3ccnc(C(F)(F)F)n3)CC2)C1 [Compound 10, [trans-1-[4-(7H-pyrrolo[2,3-d]pyrimidin-4-yl)-1H-pyrazol-1-yl]-3-(4-{[2-(trifluoromethyl)pyrimidin-4-yl]carbonyl}piperazin-1-yl)cyclobutyl]acetonitrile]
< 10 | >10 | CCNCc1cc(O[C@H]2CC[C@@H](N3CC(CC#N)(n4cc(-c5ncnc6[nH]ccc56)cn4)C3)CC2)nc(C(F)(F)F)c1 [Compound 19, {1-(cis-4-{[4-[(ethylamino)methyl]-6-(trifluoromethyl)pyridin-2-yl]oxy}cyclohexyl)-3-[4-(7H-pyrrolo[2,3-d]pyrimidin-4-yl)-1H-pyrazol-1-yl]azetidin-3-yl}acetonitrile]
< 10 | >10 | CC(C)(O)c1cc(O[C@H]2CC[C@@H](N3CC(CC#N)(n4cc(-c5ncnc6[nH]ccc56)cn4)C3)CC2)nc(C(F)(F)F)c1 [Compound 20, {1-(cis-4-{[4-(1-hydroxy-1-methylethyl)-6-(trifluoromethyl)pyridin-2-yl]oxy}cyclohexyl)-3-[4-(7H-pyrrolo[2,3-d]pyrimidin-4-yl)-1H-pyrazol-1-yl]azetidin-3-yl}acetonitrile]
< 10 | >10 | N#CCC1(n2cc(-c3ncnc4[nH]ccc34)cn2)CN([C@H]2CC[C@@H](Oc3cc(CN4CC[C@@H](O)C4)cc(C(F)(F)F)n3)CC2)C1 [Compound 21, {1-(cis-4-{[4-{[(3R)-3-hydroxypyrrolidin-1-yl]methyl}-6-(trifluoromethyl)pyridin-2-yl]oxy}cyclohexyl)-3-[4-(7H-pyrrolo[2,3-d]pyrimidin-4-yl)-1H-pyrazol-1-yl]azetidin-3-yl}acetonitrile]
< 10 | >10 | N#CCC1(n2cc(-c3ncnc4[nH]ccc34)cn2)CN([C@H]2CC[C@@H](Oc3cc(CN4CC[C@H](O)C4)cc(C(F)(F)F)n3)CC2)C1 [Compound 22, {1-(cis-4-{[4-{[(3S)-3-hydroxypyrrolidin-1-yl]methyl}-6-(trifluoromethyl)pyridin-2-yl]oxy}cyclohexyl)-3-[4-(7H-pyrrolo[2,3-d]pyrimidin-4-yl)-1H-pyrazol-1-yl]azetidin-3-yl}acetonitrile]
